Each structure is given as a SMILES string.

The text below walks through data of patent publication US12121518B2, “PARP-1 and methods of use thereof” (The Board of Supervisors of Louisiana State University and …, priority 2017, dated 2024).

One assay relates to KOPT-K1 cells. Put plainly: KOPT-K1 cell viability (Trypan exclusion assay). Format: cell-based. Conditions: ultra-low doses, 2.5 days. How it is done: (§1) Cell viability was assessed 2.5 days after treatment by Trypan exclusion assay. Statistics are not included.
as §1
The ultimate goal of this therapy is maximal inhibition of PARP to achieve “synthetic lethality” taking advantage of the inability of BRCA-deficient cancer cells to repair DNA. […] This was tested in three different leukemia cell lines.

Another assay concerns VCAM-1 and COX2. As to the kind of experiment: TNF-α-induced VCAM-1 and COX2 expression in colon epithelial cells (immunoblot). Format: cell-based, mouse. Conditions: TNF-α-treated colon epithelial cells, 5 μM. The procedure: Referring to FIG. 1, for example, colon epithelial cells were treated with TNF-α for the indicated time intervals in the presence or absence 5 μM of the PARP inhibitor AZD2281.
Cell isolation, culture, treatments, RNA extraction, cDNA synthesis and quantitative PCR—Primary CEC were isolated essentially as described (29). The mouse colon adenocarcinoma (MC-38 or CT-26), Jurkat T, RAW264.7, or 3LL lung carcinoma cell lines were purchased from Kerafast (Boston, MA) or ATCC (Manassas, VA). Mouse embryonic fibroblasts were derived from WT, PARP-1^+/−, or PARP mice using standard protocols. CEC were serum-starved overnight in 0.5% FBS prior to treatment. […] Quantitative determination of gene expression levels using a 2-step cycling protocol was conducted on a MyIQ Cycler (Bio-Rad, Hercules, CA, USA). Relative expression levels were calculated using the 2[-Delta Delta C(T)] method. Quantities of all targets were normalized to the mouse β-actin gene.
Cell fractionation, protein extraction and immunoblot analysis—Tumor tissues or cells were harvested and homogenized in RIPA lysis buffer (Santa Cruz Biotechnology) containing a cocktail of protease and phosphatase inhibitors on ice. […] Protein expression signals developed by ECL (Pierce, ThermoFisher Scientific) were determined by a G:Box Gel Image Analysis System (Syngene, Cambridge, UK) equipped with the GeneSys image capture software.

For `O=C(c1cc(Cc2n[nH]c(=O)c3ccccc23)ccc1F)N1CCN(C(=O)C2CC2)CC1` [olaparib], the “steroid resistance (viability with dexamethasone)” value in the assay on KOPT-K1 cells is recorded as “reverse steroid resistance”. Besides, the “expression of inflammatory markers (VCAM-1 and COX2)” value in the assay with VCAM-1 and COX2 is on record as “inhibits the expression of inflammatory markers”.
